Assay results taken from US20250263370A1 (Tay Therapeutics Limited, priority 2022, published 2025).
“And” between values parts separate entries of the source, which are not always exact repeats. Equal entries are not always repeated. “Also recorded” adds a separate entry of the source.

System: collagen-induced arthritis
Test: Collagen-induced arthritis (CIA) model in rats: body weight, paw volume, clinical scores, clinical observations; for Average detailed clinical score, left hind limb: key of the grades not given here; for Average detailed clinical score, right hind limb: key of the grades not given here; for Detailed Clinical Scores, left forelimb: key of the grades not given here; for Detailed Clinical Scores, left hind limb: key of the grades not given here; for Detailed Clinical Scores, right forelimb: key of the grades not given here; for Detailed Clinical Scores, right hind limb: key of the grades not given here; for Detailed Clinical Scores, score: key of the grades not given here; for Mean overall clinical score ± SD: key of the grades not given here; for Overall clinical score: key of the grades not given here
Details: for Mean animal paw volume ± SD: group mean; for Overall clinical score: individual animals #1-8; for Detailed Clinical Scores, left forelimb / Detailed Clinical Scores, left hind limb / Detailed Clinical Scores, right forelimb / Detailed Clinical Scores, right hind limb / Detailed Clinical Scores, score: individual animals ID 1-8

SMILES: CNC(=O)c1[nH]c(C(=O)NC2CCC2)cc1O[C@@H](C)c1ccccc1 (stereo in doubt) [Example 101, N^5-cyclobutyl-N^2-methyl-3-(1-phenylethoxy)-1H-pyrrole-2,5-dicarboxamide]
- Animal paw volume Day 0 L (CIA rats, 30 mg/kg, Day 0, left paw, individual animals): 1.33 mL (2×) and 1.32 mL (3×) and 1.31 mL and 1.30 mL and 1.34 mL
- Average animal paw volume percent change (CIA rats, 30 mg/kg, Day 0, right hind paw (R)): 0.00%
- Animal paw volume Day 0 R (CIA rats, 30 mg/kg, Day 0, right paw, individual animals): 1.34 mL (2×) and 1.31 mL (2×) and 1.33 mL and 1.30 mL and 1.32 mL (2×)
- Average animal paw volume percent change (CIA rats, 30 mg/kg, Day 6, left hind paw (L)): 0.76%
- Animal paw volume Day 6 L (CIA rats, 30 mg/kg, Day 6, left paw, individual animals): 1.35 mL and 1.33 mL (3×) and 1.32 mL (3×) and 1.34 mL
- Average animal paw volume percent change (CIA rats, 30 mg/kg, Day 6, right hind paw (R)): 0.75%
- Animal paw volume Day 6 R (CIA rats, 30 mg/kg, Day 6, right paw, individual animals): 1.36 mL and 1.32 mL (2×) and 1.31 mL and 1.34 mL (2×) and 1.33 mL (2×)
- Average animal paw volume percent change (CIA rats, 30 mg/kg, Day 12, left hind paw (L)): 1.33%
- Animal paw volume Day 12 L (CIA rats, 30 mg/kg, Day 12, left paw, individual animals): 1.36 mL (2×) and 1.34 mL (2×) and 1.31 mL and 1.33 mL and 1.32 mL and 1.35 mL
- Average animal paw volume percent change (CIA rats, 30 mg/kg, Day 12, right hind paw (R)): 2.87%
- Animal paw volume Day 12 R (CIA rats, 30 mg/kg, Day 12, right paw, individual animals): 1.50 mL and 1.36 mL and 1.33 mL (4×) and 1.34 mL and 1.35 mL
- Average animal paw volume percent change (CIA rats, 30 mg/kg, Day 13, left hind paw (L)): 2.76%
- Animal paw volume Day 13 L (CIA rats, 30 mg/kg, Day 13, left paw, individual animals): 1.40 mL and 1.36 mL (2×) and 1.33 mL and 1.34 mL (2×) and 1.38 mL and 1.35 mL
- Average animal paw volume percent change (CIA rats, 30 mg/kg, Day 13, right hind paw (R)): 4.15%
- Animal paw volume Day 13 R (CIA rats, 30 mg/kg, Day 13, right paw, individual animals): 1.54 mL and 1.38 mL and 1.34 mL (2×) and 1.36 mL (3×) and 1.33 mL
- Average animal paw volume percent change (CIA rats, 30 mg/kg, Day 14, left hind paw (L)): 2.39%
- Animal paw volume Day 14 L (CIA rats, 30 mg/kg, Day 14, left paw, individual animals): 1.40 mL and 1.35 mL (2×) and 1.32 mL and 1.37 mL (2×) and 1.36 mL and 1.30 mL
- Average animal paw volume percent change (CIA rats, 30 mg/kg, Day 14, right hind paw (R)): 3.83%
- Animal paw volume Day 14 R (CIA rats, 30 mg/kg, Day 14, right paw, individual animals): 1.53 mL and 1.37 mL and 1.35 mL (2×) and 1.36 mL (3×) and 1.28 mL
- Average animal paw volume percent change (CIA rats, 30 mg/kg, Day 15, left hind paw (L)): 10.45%
- Animal paw volume Day 15 L (CIA rats, 30 mg/kg, Day 15, left paw, individual animals): 1.46 mL and 1.79 mL and 1.57 mL and 1.38 mL (2×) and 1.34 mL and 1.44 mL and 1.31 mL
- Average animal paw volume percent change (CIA rats, 30 mg/kg, Day 15, right hind paw (R)): 12.13%
- Animal paw volume Day 15 R (CIA rats, 30 mg/kg, Day 15, right paw, individual animals): 1.52 mL and 1.37 mL and 1.68 mL and 1.38 mL and 1.49 mL and 1.36 mL and 1.73 mL and 1.30 mL
- Average animal paw volume percent change (CIA rats, 30 mg/kg, Day 18, left hind paw (L)): 29.38%
- Animal paw volume Day 18 L (CIA rats, 30 mg/kg, Day 18, left paw, individual animals): 1.46 mL and 2.05 mL and 1.90 mL and 1.47 mL (2×) and 1.68 mL and 1.93 mL and 1.70 mL
- Average animal paw volume percent change (CIA rats, 30 mg/kg, Day 18, right hind paw (R)): 23.54%
- Animal paw volume Day 18 R (CIA rats, 30 mg/kg, Day 18, right paw, individual animals): 1.51 mL and 1.87 mL and 1.86 mL and 1.37 mL and 1.48 mL and 1.32 mL and 1.95 mL and 1.68 mL
- Average animal paw volume percent change (CIA rats, 30 mg/kg, Day 19, left hind paw (L)): 33.52%
- Animal paw volume Day 19 L (CIA rats, 30 mg/kg, Day 19, left paw, individual animals): 1.42 mL and 2.04 mL and 2.06 mL and 1.56 mL and 1.55 mL and 1.85 mL and 1.94 mL and 1.67 mL
- Average animal paw volume percent change (CIA rats, 30 mg/kg, Day 19, right hind paw (R)): 32.36%
- Animal paw volume Day 19 R (CIA rats, 30 mg/kg, Day 19, right paw, individual animals): 1.44 mL and 1.96 mL and 2.14 mL and 1.39 mL and 1.48 mL and 1.83 mL and 2.04 mL and 1.69 mL
- Average animal paw volume percent change (CIA rats, 30 mg/kg, Day 21, left hind paw (L)): 37.92%
- Animal paw volume Day 21 L (CIA rats, 30 mg/kg, Day 21, left paw, individual animals): 1.43 mL and 2.08 mL and 2.11 mL and 1.54 mL (2×) and 2.06 mL and 2.13 mL and 1.67 mL
- Average animal paw volume percent change (CIA rats, 30 mg/kg, Day 21, right hind paw (R)): 36.08%
- Animal paw volume Day 21 R (CIA rats, 30 mg/kg, Day 21, right paw, individual animals): 1.43 mL and 2.10 mL and 2.16 mL and 1.40 mL and 1.47 mL and 2.00 mL and 2.12 mL and 1.67 mL
- overall effect on joint inflammation and clinical symptoms of CIA (CIA rats, 3, 10 and 30 mg/kg twice daily P.O. (groups 5-7)): ameliorated joint inflammation in a dose-dependent manner; also recorded: lower clinical scores; also recorded: dose-dependent effect in the amelioration of clinical symptoms associated with CIA; also recorded: function in a dose-dependent manner to limit and/or reduce the severity of CIA-related symptoms
- Mean animal paw volume ± SD (Day 0, L paw, 3 mg/kg): 1.33 mL
- Mean animal paw volume ± SD (Day 0, L paw, 10 mg/kg): 1.31 mL
- Mean animal paw volume ± SD (Day 0, L paw, 30 mg/kg): 1.32 mL
- Mean animal paw volume ± SD (Day 0, R paw, 3 mg/kg): 1.33 mL
- Mean animal paw volume ± SD (Day 0, R paw, 10 mg/kg): 1.31 mL
- Mean animal paw volume ± SD (Day 0, R paw, 30 mg/kg): 1.32 mL
- Average detailed clinical score, left forelimb (Day 0, CIA rats, 3 mg/kg): 0.00
- Average detailed clinical score, left hind limb (Day 0, CIA rats, 3 mg/kg): 0.00
- Average detailed clinical score, right forelimb (Day 0, CIA rats, 3 mg/kg): 0.00
- Average detailed clinical score, right hind limb (Day 0, CIA rats, 3 mg/kg): 0.00
- Average detailed clinical score, score (Day 0, CIA rats, 3 mg/kg): 0.00
- Mean overall clinical score ± SD (Day 0, CIA rats, 3 mg/kg): 0 ± 0
- Overall clinical score (Day 0, CIA rats, 3 mg/kg): 0
- Average detailed clinical score, left forelimb (Day 0, CIA rats, 10 mg/kg): 0.00
- Average detailed clinical score, left hind limb (Day 0, CIA rats, 10 mg/kg): 0.00
- Average detailed clinical score, right forelimb (Day 0, CIA rats, 10 mg/kg): 0.00
- Average detailed clinical score, right hind limb (Day 0, CIA rats, 10 mg/kg): 0.00
- Average detailed clinical score, score (Day 0, CIA rats, 10 mg/kg): 0.00
- Mean overall clinical score ± SD (Day 0, CIA rats, 10 mg/kg): 0 ± 0
- Overall clinical score (Day 0, CIA rats, 10 mg/kg): 0
- Average detailed clinical score, left forelimb (Day 0, CIA rats, 30 mg/kg): 0.00
- Average detailed clinical score, left hind limb (Day 0, CIA rats, 30 mg/kg): 0.00
- Average detailed clinical score, right forelimb (Day 0, CIA rats, 30 mg/kg): 0.00
- Average detailed clinical score, right hind limb (Day 0, CIA rats, 30 mg/kg): 0.00
- Average detailed clinical score, score (Day 0, CIA rats, 30 mg/kg): 0.00
- Mean overall clinical score ± SD (Day 0, CIA rats, 30 mg/kg): 0 ± 0
- Mean animal paw volume ± SD (Day 6, L paw, 3 mg/kg): 1.34 mL
- Mean animal paw volume ± SD (Day 6, L paw, 10 mg/kg): 1.32 mL
- Mean animal paw volume ± SD (Day 6, L paw, 30 mg/kg): 1.33 mL
- Mean animal paw volume ± SD (Day 6, R paw, 3 mg/kg): 1.35 mL
- Mean animal paw volume ± SD (Day 6, R paw, 10 mg/kg): 1.32 mL
- Mean animal paw volume ± SD (Day 6, R paw, 30 mg/kg): 1.33 mL
- Average detailed clinical score, left forelimb (Day 6, CIA rats, 3 mg/kg): 0.00
- Average detailed clinical score, left hind limb (Day 6, CIA rats, 3 mg/kg): 0.00
- Average detailed clinical score, right forelimb (Day 6, CIA rats, 3 mg/kg): 0.00
- Average detailed clinical score, right hind limb (Day 6, CIA rats, 3 mg/kg): 0.00
- Average detailed clinical score, score (Day 6, CIA rats, 3 mg/kg): 0.00
- Mean overall clinical score ± SD (Day 6, CIA rats, 3 mg/kg): 0 ± 0
- Overall clinical score (Day 6, CIA rats, 3 mg/kg): 0
- Average detailed clinical score, left forelimb (Day 6, CIA rats, 10 mg/kg): 0.00
- Average detailed clinical score, left hind limb (Day 6, CIA rats, 10 mg/kg): 0.00
- Average detailed clinical score, right forelimb (Day 6, CIA rats, 10 mg/kg): 0.00
- Average detailed clinical score, right hind limb (Day 6, CIA rats, 10 mg/kg): 0.00
- Average detailed clinical score, score (Day 6, CIA rats, 10 mg/kg): 0.00
- Mean overall clinical score ± SD (Day 6, CIA rats, 10 mg/kg): 0 ± 0
- Overall clinical score (Day 6, CIA rats, 10 mg/kg): 0
- Average detailed clinical score, left forelimb (Day 6, CIA rats, 30 mg/kg): 0.00
- Average detailed clinical score, left hind limb (Day 6, CIA rats, 30 mg/kg): 0.00
- Average detailed clinical score, right forelimb (Day 6, CIA rats, 30 mg/kg): 0.00
- Average detailed clinical score, right hind limb (Day 6, CIA rats, 30 mg/kg): 0.00
- Average detailed clinical score, score (Day 6, CIA rats, 30 mg/kg): 0.00
- Mean overall clinical score ± SD (Day 6, CIA rats, 30 mg/kg): 0 ± 0
- Mean animal paw volume ± SD (Day 12, L paw, 3 mg/kg): 1.41 mL
- Mean animal paw volume ± SD (Day 12, L paw, 10 mg/kg): 1.41 mL
- Mean animal paw volume ± SD (Day 12, L paw, 30 mg/kg): 1.33 mL
- Mean animal paw volume ± SD (Day 12, R paw, 3 mg/kg): 1.40 mL
- Mean animal paw volume ± SD (Day 12, R paw, 10 mg/kg): 1.41 mL
- Mean animal paw volume ± SD (Day 12, R paw, 30 mg/kg): 1.36 mL
- Detailed Clinical Scores, left forelimb (Day 12, 3 mg/kg, CIA rats): 0
- Detailed Clinical Scores, left hind limb (Day 12, 3 mg/kg, CIA rats): 0 (7×) and 1
- Detailed Clinical Scores, right forelimb (Day 12, 3 mg/kg, CIA rats): 0 (6×) and 1 (2×)
- Detailed Clinical Scores, right hind limb (Day 12, 3 mg/kg, CIA rats): 0
- Detailed Clinical Scores, score (Day 12, 3 mg/kg, CIA rats): 0 (5×) and 1 (3×)
- Detailed Clinical Scores, left forelimb (Day 12, 10 mg/kg, CIA rats): 0
- Detailed Clinical Scores, left hind limb (Day 12, 10 mg/kg, CIA rats): 1 (2×) and 0 (6×)
- Detailed Clinical Scores, right forelimb (Day 12, 10 mg/kg, CIA rats): 0
- Detailed Clinical Scores, right hind limb (Day 12, 10 mg/kg, CIA rats): 0 (7×) and 2
- Detailed Clinical Scores, score (Day 12, 10 mg/kg, CIA rats): 1 (2×) and 0 (5×) and 2
- Detailed Clinical Scores, left forelimb (Day 12, 30 mg/kg, CIA rats): 0
- Detailed Clinical Scores, left hind limb (Day 12, 30 mg/kg, CIA rats): 0
- Detailed Clinical Scores, right forelimb (Day 12, 30 mg/kg, CIA rats): 0
- Detailed Clinical Scores, right hind limb (Day 12, 30 mg/kg, CIA rats): 1 and 0 (7×)
- Detailed Clinical Scores, score (Day 12, 30 mg/kg, CIA rats): 1 and 0 (7×)
- Average detailed clinical score, left forelimb (Day 12, CIA rats, 3 mg/kg): 0.00
- Average detailed clinical score, left hind limb (Day 12, CIA rats, 3 mg/kg): 0.13
- Average detailed clinical score, right forelimb (Day 12, CIA rats, 3 mg/kg): 0.25
- Average detailed clinical score, right hind limb (Day 12, CIA rats, 3 mg/kg): 0.00
- Average detailed clinical score, score (Day 12, CIA rats, 3 mg/kg): 0.38
- Mean overall clinical score ± SD (Day 12, CIA rats, 3 mg/kg): 0 ± 1
- Overall clinical score (Day 12, CIA rats, 3 mg/kg): 0 (5×) and 1 (3×)
- Average detailed clinical score, left forelimb (Day 12, CIA rats, 10 mg/kg): 0.00
- Average detailed clinical score, left hind limb (Day 12, CIA rats, 10 mg/kg): 0.25
- Average detailed clinical score, right forelimb (Day 12, CIA rats, 10 mg/kg): 0.00
